These results are taken from ChEMBL document CHEMBL3727356, “Therapeutic compounds and compositions” (2014).

Assay [1] has as its target T1, Pyruvate kinase PKLR (Homo sapiens, UniProt P30613). Description: Activation of wild type PKR (unknown origin) incubated for 60 mins in presence of ADP, PEP and NADH by Spectraax microplate reader based assay.
Assay [2] addresses Pyruvate kinase PKLR (Homo sapiens, UniProt P30613, R532W). The assay is described as follows: Activation of PKR R532W mutant (unknown origin) incubated for 60 mins in presence of ADP, PEP and NADH by Spectraax microplate reader based assay.
Assay [3] addresses T1, Pyruvate kinase PKLR. The assay is described as follows: Activation of wild type PKR (unknown origin) by cell based assay.

T1 sequence (P30613 whole entry): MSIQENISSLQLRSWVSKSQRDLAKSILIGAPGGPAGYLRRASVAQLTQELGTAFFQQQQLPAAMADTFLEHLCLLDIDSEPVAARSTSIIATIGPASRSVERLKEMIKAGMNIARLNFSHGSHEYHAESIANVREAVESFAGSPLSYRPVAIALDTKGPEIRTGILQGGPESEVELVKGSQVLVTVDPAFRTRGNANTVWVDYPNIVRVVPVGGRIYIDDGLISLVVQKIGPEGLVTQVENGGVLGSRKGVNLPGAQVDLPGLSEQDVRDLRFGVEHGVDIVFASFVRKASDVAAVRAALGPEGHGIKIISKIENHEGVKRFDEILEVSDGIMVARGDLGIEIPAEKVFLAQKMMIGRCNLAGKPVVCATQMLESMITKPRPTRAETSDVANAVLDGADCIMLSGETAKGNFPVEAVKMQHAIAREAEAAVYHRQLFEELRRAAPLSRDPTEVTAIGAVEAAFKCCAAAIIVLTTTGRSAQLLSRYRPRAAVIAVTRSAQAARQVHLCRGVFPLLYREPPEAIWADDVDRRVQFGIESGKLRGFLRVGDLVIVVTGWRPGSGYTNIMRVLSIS
Chain of Pyruvate kinase PKLR (Homo sapiens, UniProt P30613, R532W) (P30613 whole entry R532W): as the sequence (P30613 whole entry) above, with R532W counted along it

Consider `O=C(c1ccc(NS(=O)(=O)c2cccc3scnc23)cc1)N1CCC(O)(CC2CC2)CC1`, for which the AC50 in assay [1] and in assay [2] was less than 100 nM each time.

Consider `O=C(c1ccc(NS(=O)(=O)c2cc(F)cc3cccnc23)cc1)N1CCC(O)(c2ccccc2Cl)CC1`, for which the AC50 in assay [1] and in assay [2] was less than 100 nM each time.

In the case of `Cn1nccc1CC1(O)CCN(C(=O)c2ccc(NS(=O)(=O)c3cccc4scnc34)cc2)CC1`, the AC50 in assay [2] was less than 100 nM.

As to `CC(F)(F)CCC1(O)CCN(C(=O)c2ccc(NS(=O)(=O)c3cccc4nccnc34)cc2OC(F)F)CC1`, the AC50 in assay [2] was less than 100 nM.

The compound `CC(C)CC1(OC(=O)OCOP(=O)(O)O)CCN(C(=O)c2ccc(NS(=O)(=O)c3cccc4scnc34)cc2)CC1` displayed a half-maximal activity concentration (AC50) in assay [3] of less than 100 nM.

For `Cc1nc(C2(O)CCN(C(=O)c3ccc(NS(=O)(=O)c4cccc5cccnc45)cc3)CC2)ccc1F`, the AC50 in assay [1] and in assay [2] was less than 100 nM each time.

Regarding `O=C(c1ncc(NS(=O)(=O)c2cccc3cccnc23)cn1)N1CCC(O)(c2ccccc2)CC1`, in assay [1], the AC50 was greater than 10000 nM.

As to `COc1ccccc1C1(O)CCN(C(=O)c2ccc(NS(=O)(=O)c3cccc4cccnc34)cc2)CC1`, the AC50 in assay [1] and in assay [2] was less than 100 nM each time.

As to `O=C(c1ccc(NS(=O)(=O)c2cccc3nccnc23)cc1)N1CCC(O)(c2sncc2Cl)CC1`, the AC50 in assay [3] was less than 100 nM.

With `O=C(c1ccc(NS(=O)(=O)c2cccc3ccoc23)cc1)N1CCC(O)(c2ccccc2Cl)CC1`, the AC50 in assay [1] and in assay [2] was less than 100 nM in each case.

On to `Cc1n[nH]c(C)c1CC1(O)CCN(C(=O)c2ccc(NS(=O)(=O)c3cccc4nccnc34)cc2)CC1`, for which the AC50 in assay [1] and in assay [2] was less than 100 nM throughout.

As for `Cc1cc(CC2(O)CCN(C(=O)c3ccc(NS(=O)(=O)c4cccc5nccnc45)cc3)CC2)sn1`, the AC50 in assay [1] and in assay [2] was less than 100 nM in each case.

For `Cc1cc(C2(O)CCN(C(=O)c3ccc(NS(=O)(=O)c4cccc5nccnc45)cc3)CC2)sn1`, the AC50 in assay [1] and in assay [2] was less than 100 nM throughout.

For `CC(C)CC1(O)CCN(C(=O)c2ccc(NS(=O)(=O)c3cc(F)cc4scnc34)cc2)CC1`, the AC50 in assay [1] and in assay [2] was less than 100 nM in each case.

With `O=C(c1ccc(NS(=O)(=O)c2cccc3cccnc23)cc1)N1CCC(O)(c2ncccc2F)CC1`, the AC50 in assay [1] and in assay [2] was less than 100 nM throughout.

As to `O=C(c1ccc(NS(=O)(=O)c2cccc3scnc23)cc1)N1CCC(O)(CC2CC2(F)F)CC1` (centres undefined), the AC50 in assay [1] and in assay [2] was less than 100 nM each time.

`O=C(c1ccc(NS(=O)(=O)c2cccc3scnc23)cc1)N1CCC(O)(c2ccccc2C(F)F)CC1`: the AC50 in assay [1] and in assay [2] was less than 100 nM in each case.

Turning to `CC(F)(F)CCC1(O)CCN(C(=O)c2ccc(NS(=O)(=O)c3cccc4scnc34)cc2)CC1`, the AC50 in assay [1] and in assay [2] was less than 100 nM throughout.

Regarding `O=C(c1ccc(NS(=O)(=O)c2ccc(F)c3cccnc23)cc1)N1CCC(O)(Cc2ccccc2C(F)(F)F)CC1`, the AC50 in assay [1] and in assay [2] was less than 100 nM in each case.

With `O=C(c1ccc(NS(=O)(=O)c2cc(F)cc3scnc23)cc1)N1CCC(O)(c2ccccc2Cl)CC1`, the AC50 in assay [1] and in assay [2] was less than 100 nM each time.

As to `Cc1noc(C)c1CC1(O)CCN(C(=O)c2ccc(NS(=O)(=O)c3cccc4scnc34)cc2)CC1`, the AC50 in assay [1] and in assay [2] was less than 100 nM throughout.

As to `Cc1ccc(C2(O)CCN(C(=O)c3ccc(NS(=O)(=O)c4cccc5cccnc45)cc3)CC2)c(Cl)c1`, the AC50 in assay [1] and in assay [2] was less than 100 nM in each case.

Regarding `Cc1n[nH]c(C)c1CC1(O)CCN(C(=O)c2ccc(NS(=O)(=O)c3cccc4scnc34)cc2)CC1`, the AC50 in assay [1] and in assay [2] was less than 100 nM throughout.

With `Cn1cc(CC2(O)CCN(C(=O)c3ccc(NS(=O)(=O)c4cccc5scnc45)cc3)CC2)cn1`, the AC50 in assay [2] is less than 100 nM.

As to `CC(C)CC1(OP(=O)(O)O)CCN(C(=O)c2ccc(NS(=O)(=O)c3cccc4scnc34)cc2)CC1`, the AC50 in assay [1] and in assay [2] was greater than 10000 nM throughout.

Regarding `O=C(c1ccc(NS(=O)(=O)c2cccc3nccnc23)cc1)N1CCC(O)(Cc2cn[nH]c2)CC1`, the AC50 in assay [1] and in assay [2] was less than 100 nM each time.

In the case of `COc1cc(NS(=O)(=O)c2cccc3cccnc23)ccc1C(=O)N1CCC(O)(c2ccccc2Cl)CC1`, the AC50 in assay [1] and in assay [2] was less than 100 nM in each case.

For `CC(C)CC1(CO)CCN(C(=O)c2ccc(NS(=O)(=O)c3cccc4nccnc34)cc2)CC1`, the AC50 in assay [1] and in assay [2] was less than 100 nM each time.

Turning to `O=C(c1ccc(NS(=O)(=O)c2cccc3ccc(F)nc23)cc1)N1CCC(O)(c2ccccc2Cl)CC1`, the AC50 in assay [1] and in assay [2] was less than 100 nM each time.

On to `CC(F)(F)CCC1(O)CCN(C(=O)c2ccc(NS(=O)(=O)c3cccc4scnc34)cc2OC(F)F)CC1`, for which the AC50 in assay [1] and in assay [2] was less than 100 nM throughout.

For `O=C(c1ccc(NS(=O)(=O)c2cccc3ccccc23)cc1)N1CCC(O)(c2ccccc2Cl)CC1`, the AC50 in assay [1] and in assay [2] was less than 100 nM each time.

For the compound `O=C(c1ccc(NS(=O)(=O)c2cccc3scnc23)cc1)N1CCC(O)(c2scnc2Cl)CC1`, the AC50 in assay [1] and in assay [2] was less than 100 nM throughout.

Consider `COCCC1(O)CCN(C(=O)c2ccc(NS(=O)(=O)c3cccc4cccnc34)cc2)CC1`, for which the AC50 in assay [1] was less than 100 nM.

With `O=C(c1ccc(NS(=O)(=O)c2cccnc2)cc1)N1CCC(O)(Cc2ccccc2)CC1`, the AC50 in assay [2] is greater than 10000 nM.

With `N#Cc1cccc(S(=O)(=O)Nc2ccc(C(=O)N3CCC(O)(Cc4ccccc4)CC3)cc2)c1`, in assay [1], the AC50 is greater than 10000 nM.

On to `O=C(c1ccc(NS(=O)(=O)c2cccc3cccnc23)cc1)N1CCC(O)(c2cccnc2F)CC1`, for which the AC50 in assay [1] was less than 100 nM.

Turning to `CC(C)(O)CCCC1(O)CCN(C(=O)c2ccc(NS(=O)(=O)c3cccc4nccnc34)cc2)CC1`, the AC50 in assay [1] and in assay [2] was greater than 10000 nM throughout.

On to `CC(C)CC1(CO)CCN(C(=O)c2ccc(NS(=O)(=O)c3cccc4scnc34)cc2)CC1`, for which the AC50 in assay [1] and in assay [2] was less than 100 nM throughout.

`O=C(c1ccc(NS(=O)(=O)c2cccc3cccnc23)c2ccccc12)N1CCC(O)(c2ccccc2Cl)CC1`: the AC50 in assay [1] and in assay [2] was less than 100 nM each time.

On to `O=C(c1ccc(NS(=O)(=O)c2ccc(C(F)(F)F)cc2)cc1)N1CCC(O)(Cc2ccccc2)CC1`, for which the AC50 in assay [1] and in assay [2] was greater than 10000 nM each time.

As to `O=C(c1ccc(NS(=O)(=O)c2cccc3scnc23)cc1)N1CCC(O)(Cc2cn[nH]c2)CC1`, the AC50 in assay [1] and in assay [2] was less than 100 nM in each case.

Turning to `O=C(c1ccc(NS(=O)(=O)c2cccc3cccnc23)cc1)N1CCC(O)(Cc2cccc(C(F)(F)F)c2)CC1`, the AC50 in assay [1] and in assay [2] was less than 100 nM in each case.

As to `Nc1nc2c(S(=O)(=O)Nc3ccc(C(=O)N4CCC(O)(CCC(F)(F)F)CC4)cc3)cccc2s1`, the AC50 in assay [1] and in assay [2] was less than 100 nM each time.

With `Cc1cccc(CC2(O)CCN(C(=O)c3ccc(NS(=O)(=O)c4cccc5cccnc45)cc3)CC2)n1`, the AC50 in assay [1] and in assay [2] was less than 100 nM each time.

Turning to `O=C(c1ccc(NS(=O)(=O)c2cccc3cccnc23)cc1)N1CCC(O)(Cc2ccccn2)CC1`, the AC50 in assay [1] and in assay [2] was less than 100 nM throughout.

For the compound `O=C(c1ccc(NS(=O)(=O)c2cccc3cnccc23)cc1)N1CCC(O)(c2ccccc2)CC1`, the AC50 in assay [1] and in assay [2] was greater than 10000 nM in each case.

With `O=C(c1ccc(NS(=O)(=O)c2cccc3cccnc23)cc1)N1CCC(O)(/C=C/C(F)F)CC1`, in assay [1], the AC50 was less than 100 nM.

As for `Cc1nc(C(=O)N2CCC(O)(c3ccccc3Cl)CC2)ccc1NS(=O)(=O)c1cccc2cccnc12`, the AC50 in assay [1] and in assay [2] was less than 100 nM throughout.

Take `CCOCC1(O)CCN(C(=O)c2ccc(NS(=O)(=O)c3cccc4cccnc34)cc2)CC1`: in assay [2], the AC50 is less than 100 nM.

Turning to `O=C(c1ccc(NS(=O)(=O)c2cccc3nccnc23)cc1)N1CCC(O)(CC2CC2)CC1`, the AC50 in assay [1] and in assay [2] was less than 100 nM throughout.

For the compound `COc1ncccc1C1(O)CCN(C(=O)c2ccc(NS(=O)(=O)c3cccc4cccnc34)cc2)CC1`, the AC50 in assay [1] and in assay [2] was less than 100 nM each time.

As for `C=C(C)CC1(O)CCN(C(=O)c2ccc(NS(=O)(=O)c3cccc4scnc34)cc2)CC1`, the AC50 in assay [1] and in assay [2] was less than 100 nM each time.

As to `O=C(c1ccc(NS(=O)(=O)c2cccc3cccnc23)cc1)N1CCC(O)(Cc2cccnc2)CC1`, the AC50 in assay [1] and in assay [2] was less than 100 nM each time.

On to `CC(F)(F)CCC1(O)CCN(C(=O)c2ccc(NS(=O)(=O)c3cc(F)cc4sc(N)nc34)cc2F)CC1`, for which the AC50 in assay [1] is less than 100 nM.

On to `O=C(c1ccc(NS(=O)(=O)c2cccc3scnc23)cc1)N1CCC(O)(Cc2nc(Cl)cs2)CC1`, for which the AC50 in assay [1] was less than 100 nM.

Take `O=C(c1ccc(NS(=O)(=O)c2cccc3scnc23)cc1)N1CCC(O)(CCC(F)=C(F)F)CC1`: the AC50 in assay [1] and in assay [2] was less than 100 nM each time.

As for `Cc1cc(C2(O)CCN(C(=O)c3ccc(NS(=O)(=O)c4cccc5scnc45)cc3)CC2)sn1`, the AC50 in assay [1] and in assay [2] was less than 100 nM in each case.

Take `O=C(c1ccc(NS(=O)(=O)c2cccc3nccnc23)cc1)N1CCC(O)(CCC(F)(F)F)CC1`: the AC50 in assay [1] and in assay [2] was less than 100 nM in each case.

Consider `O=C(c1ccc(NS(=O)(=O)c2cccc3ocnc23)cc1)N1CCC(O)(c2ccccc2Cl)CC1`, for which the AC50 in assay [1] was less than 100 nM.

Turning to `O=C(c1ccc(NS(=O)(=O)c2cc(F)cc3cccnc23)cc1)N1CCC(O)(c2ccccc2)CC1`, the AC50 in assay [1] and in assay [2] was less than 100 nM throughout.

Take `O=C(c1ccc(NS(=O)(=O)c2ccc(F)c3cccnc23)cc1)N1CCC(O)(CC2CCC2)CC1`: the AC50 in assay [1] and in assay [2] was less than 100 nM in each case.

As for `CC(C)CC1(O)CCN(C(=O)c2ccc(NS(=O)(=O)c3cccc4snnc34)cc2)CC1`, the AC50 in assay [1] and in assay [2] was greater than 10000 nM in each case.
